Measurements published in publication PMC9569593, “Measurement of Hepatic CYP3A4 and 2D6 Activity Using Radioiodine-Labeled O-Desmethylvenlafaxine” (International Journal of Molecular Sciences, 2022).
Like-named read-outs stand apart in the source and are kept apart here.

Legend:
[1] = up to seven days at 4 °C
Procedure: The stability of ^125I-ODV was analyzed by TLC. The elution of ^125I-ODVwas spotted onto a silica gel TLC plate 60 F254 (Merck, Darmstadt, Germany). The TLC plate and the TLC spots were developed using methanol/acetate at a ratio of 100:1. After development and complete drying, the TLC plates were cut into 21 fractions, and the radiography associated with each fraction was quantified using a γ-ray counter (AccuFLEXγ 7000, Aloka, Tokyo, Japan). The fractional ratios of ^125I^− and ^125I-ODV were calculated by dividing the radioactive counts for each fraction by the total radioactivity count.

[2] = for Biological distribution, Blood / Biological distribution, Brain / Biological distribution, Gallbladder / Biological distribution, Heart / Biological distribution, Kidney / Biological distribution, Large intestines / Biological distribution, Liver / Biological distribution, Lung / Biological distribution, Pancreas / Biological distribution, Small intestines / Biological distribution, Spleen / Biological distribution, Stomach / Biological distribution, Thyroid / Biological distribution, Urine: control normal mice, i.v.
Procedure: For biological distribution in normal mice, ^125I-ODV was prepared to a radioactivity concentration of 185 kBq/mL by adding saline. A total of 20 mice fasted for 6 hr were administered ^125I-ODV via the tail vein (18.5 kBq/100 µL/mouse). After 5, 15, 30, and 60 min, normal mice were euthanized under isoflurane anesthesia (n = 4), and the following tissues were collected: blood, brain, heart, lung, thyroid, gallbladder, liver, spleen, pancreas, stomach, small intestines, large intestines, and kidney. Tissues were weighed, and radioactivity was quantified using a γ-ray counter to calculate the %ID or percent injected dose per gram of tissue (%ID/g).

[3] = Procedure: ^125I-ODV was prepared to a radioactive concentration of 30 MBq/mL by the addition of saline. For metabolite analysis in CYP-inhibited mice, we produced model mice with reduced CYP3A4 or CYP2D6 activity by selective inhibition using ketoconazole or paroxetine. CYP3A4-inhibited mice were injected intraperitoneally with 50 mg/kg of ketoconazole at 60 min before injection of ^125I-ODV, and CYP2D6-inhibited mice were injected intraperitoneally with 30 mg/kg of paroxetine at 60 min before injection of ^125I-ODV. Each of three mice was administered ^125I-ODV via the tail vein (3.0 MBq/100 µL/mouse). At 30 min, the three fasted mice were euthanized under isoflurane, and each gallbladder was collected. The radioactive products in bile were analyzed by TLC using methanol/acetate at a ratio of 100:1. Bile was directly spotted onto a TLC plate.
[4] = tested on: CYP; details: for fraction of 125I-ODV / peak of 125I-ODV metabolite: NADPH [+]
Procedure: Animal studies were approved by the Animal Care Committee at Kanazawa University (AP-173851) and were conducted in accordance with international standards for animal welfare and institutional guidelines. For preparation of the pooled mouse liver homogenates (MLH), three six-week-old ddY mice (Japan SLC, Tokyo, Japan) were euthanized under anesthesia with isoflurane, and the removed livers were weighed. After adding Krebs–Ringer phosphate buffer (pH 7.4), the pooled livers were homogenized with an ultrasonic homogenizer (SONIFIER250, Branson, MO, USA), and the protein content was measured according to the bicinchoninic acid method. The pooled MLH was stored at −80 °C.
For analysis of NADPH-mediated metabolism of ^125I-ODV, NADPH was used as an energy source of CYP-mediated metabolism. Adding an NADPH-generating system produced a state in which CYP was active. NADPH-mediated metabolism of ^125I-ODV was examined in a mixture consisting of an NADPH-generating system (0.5 mM β-NADP^+, 5 mM MgCl2, 5 mM G6P, and 1 U/mL G6PD), 100 mM sodium potassium phosphate buffer (pH 7.4), 50 μM EDTA disodium salt, and 1000 μg protein/20 μL pooled MLH in a final volume of 250 μL (NADPH [+]). […] The samples were incubated at 37 °C for 5, 15, 30, and 60 min with gentle shaking, ethanol was added to stop the reactions, and the samples were centrifuged at 18,000 g for 5 min. The supernatants in each sample were analyzed by HPLC. The mobile phase consisted of 70% 20 mM KH2PO4 buffer (pH 4.0) and 30% acetonitrile at a flow rate of 1.0 mL/min (n = 3).

[5] = normal mice, after 5 min of administration
[6] = normal and CYP-inhibited mice, TLC of bile

CN(C)CC(c1ccc(O)c([125I])c1)C1(O)CCCCC1 (stereo not shown) [^125I-ODV, iodine-125-labeled O-desmethylvenlafaxine]
radiochemical purity [1]: more than 98%
Biological distribution, Blood ([2]; 5 min): 1.89 %ID/g
Biological distribution, Brain ([2]; 5 min): 0.80 %ID/g
Biological distribution, Gallbladder ([2]; 5 min): 4.31 %ID/g
Biological distribution, Heart ([2]; 5 min): 5.64 %ID/g
Biological distribution, Kidney ([2]; 5 min): 22.95 %ID/g
Biological distribution, Large intestines ([2]; 5 min): 1.32 %ID/organ
Biological distribution, Liver ([2]; 5 min): 6.91 %ID/g
Biological distribution, Lung ([2]; 5 min): 27.04 %ID/g
Biological distribution, Pancreas ([2]; 5 min): 7.87 %ID/g
Biological distribution, Small intestines ([2]; 5 min): 6.85 %ID/organ
Biological distribution, Spleen ([2]; 5 min): 9.22 %ID/g
Biological distribution, Stomach ([2]; 5 min): 2.44 %ID/organ
Biological distribution, Thyroid ([2]; 5 min): 0.06 %ID/organ
Biological distribution, Urine ([2]; 5 min): 0.63 %ID/organ
Biological distribution, Blood ([2]; 15 min): 1.31 %ID/g
Biological distribution, Brain ([2]; 15 min): 0.75 %ID/g
Biological distribution, Gallbladder ([2]; 15 min): 5.26 %ID/g
Biological distribution, Heart ([2]; 15 min): 2.71 %ID/g
Biological distribution, Kidney ([2]; 15 min): 16.37 %ID/g
Biological distribution, Large intestines ([2]; 15 min): 1.18 %ID/organ
Biological distribution, Liver ([2]; 15 min): 6.04 %ID/g
Biological distribution, Lung ([2]; 15 min): 16.75 %ID/g
Biological distribution, Pancreas ([2]; 15 min): 6.04 %ID/g
Biological distribution, Small intestines ([2]; 15 min): 7.70 %ID/organ
Biological distribution, Spleen ([2]; 15 min): 4.79 %ID/g
Biological distribution, Stomach ([2]; 15 min): 3.19 %ID/organ
Biological distribution, Thyroid ([2]; 15 min): 0.03 %ID/organ
Biological distribution, Urine ([2]; 15 min): 3.37 %ID/organ
Biological distribution, Blood ([2]; 30 min): 1.34 %ID/g
Biological distribution, Brain ([2]; 30 min): 0.73 %ID/g
Biological distribution, Gallbladder ([2]; 30 min): 24.23 %ID/g
Biological distribution, Heart ([2]; 30 min): 2.04 %ID/g
Biological distribution, Kidney ([2]; 30 min): 14.27 %ID/g
Biological distribution, Large intestines ([2]; 30 min): 0.68 %ID/organ
Biological distribution, Liver ([2]; 30 min): 5.45 %ID/g
Biological distribution, Lung ([2]; 30 min): 13.30 %ID/g
Biological distribution, Pancreas ([2]; 30 min): 5.02 %ID/g
Biological distribution, Small intestines ([2]; 30 min): 8.47 %ID/organ
Biological distribution, Spleen ([2]; 30 min): 3.45 %ID/g
Biological distribution, Stomach ([2]; 30 min): 2.75 %ID/organ
Biological distribution, Thyroid ([2]; 30 min): 0.04 %ID/organ
Biological distribution, Urine ([2]; 30 min): 3.69 %ID/organ
Biological distribution, Blood ([2]; 60 min): 0.74 %ID/g
Biological distribution, Brain ([2]; 60 min): 0.60 %ID/g
Biological distribution, Gallbladder ([2]; 60 min): 33.05 %ID/g
Biological distribution, Heart ([2]; 60 min): 1.00 %ID/g
Biological distribution, Kidney ([2]; 60 min): 9.42 %ID/g
Biological distribution, Large intestines ([2]; 60 min): 0.47 %ID/organ
Biological distribution, Liver ([2]; 60 min): 2.89 %ID/g
Biological distribution, Lung ([2]; 60 min): 5.01 %ID/g
Biological distribution, Pancreas ([2]; 60 min): 2.92 %ID/g
Biological distribution, Small intestines ([2]; 60 min): 11.03 %ID/organ
Biological distribution, Spleen ([2]; 60 min): 1.75 %ID/g
Biological distribution, Stomach ([2]; 60 min): 1.88 %ID/organ
Biological distribution, Thyroid ([2]; 60 min): 0.02 %ID/organ
Biological distribution, Urine ([2]; 60 min): 7.31 %ID/organ
accumulation in the kidneys [2, 5]: more than 20%
accumulation in the lungs [2, 5]: more than 20%
metabolites of 125I-ODV present in bile ([3]; gallbladders collected 60 min after injection): more than 99%
fraction of 125I-ODV in bile [3, 6]: not found
fractional ratio of the metabolite in bile [3, 6]: more than 99%
fraction of 125I-ODV ([4]; end value of the decrease): ~54%
peak of 125I-ODV metabolite ([4]; end value of the increase): ~46%
fraction of 125I-ODV ([4]; start value of the decrease): about 85%
peak of 125I-ODV metabolite ([4]; start value of the increase): about 0%
percentage of metabolite ([4]; NADPH [−], 37 °C, 15 min): 1.52%
